Measured values taken from patent publication US9469854B2, “Pharmaceutical composition for treating liver diseases” (Academia Sinica, priority 2014, dated 2016).

Legend:
hsa-miR-21-3p = test: miRNA microarray profiling of berberine-treated HepG2 cells; assay type: cell-based, human; details: HepG2, 40 μM berberine, 2 h and 4 h vs control cells
Protocol: The miRNA profiling was performed using an Agilent human miRNA Microarray R14 V2 containing 866 human miRNAs. […] Microarrays were scanned following the Agilent microarray scanner protocol, and image analysis and quantification were performed using the Agilent Feature Extraction software (Agilent Technologies). […]

SPEBF2 = test: qRT-PCR mRNA expression in primary human hepatocytes; assay type: cell-based; details: PHH, 40 μM berberine, 4-8 h
Protocol: The primary human hepatocytes from Caucasian donors were purchased from Invitrogen and cultured following the manufacturer's instructions. The hepatocytes were thawed and transferred into cryopreserved hepatocytes recovery medium (CM7000, Invitrogen), centrifuging at room temperature, 100×g for 10 min. Then, the hepatocytes were diluted to seeding density with plating medium (CM3000, Invitrogen) and added into collagen I-coated plates (Invitrogen). These plates were incubated at 37° C. for 4-6 hours under 5% CO2 for forming a monolayer. Then, plating medium was replaced by overlay incubation medium (CM4000 and 0.35 mg/mL Geltrex™ Matrix, Invitrogen), and the incubation medium was replaced daily. In the following examples, hepatocytes form 3 to 4 donors were used for experiments.
A 50 mM stock solution of berberine chloride (Sigma-Aldrich) was prepared in dimethyl sulfoxide (DMSO). Cells were treated with 40 μM of berberine chloride or 0.08% DMSO as the control. For induction of lipid droplets formation in cultured cells, 200 μM of oleic acid (Sigma-Aldrich) was added into the culture medium for 24 h.
Total RNA was extracted using a TRIZOL reagent (Invitrogen) according to the manufacturer's protocol. The total RNA quantity was measured using a NanoDrop ND-1000 spectrophotometer (Nanodrop Technologies). […]

DGAT2 = test: qRT-PCR mRNA expression in HepG2 cells; assay type: cell-based, human; details: HepG2, miR-21-3p over-expressed, 24 h
Protocol: (§1) The human HepG2 cells and HEK 293T cells used in the following examples were originally obtained from the American Tissue Culture Collection (ATCC, USA). The human HCC HepG2 cell line was cultured in Minimum Essential Medium Eagle (Sigma) supplemented with 10% fetal bovine serum (FBS) (Invitrogen), 2.2 g/L of sodium bicarbonate (Sigma), 0.1 mM of non-essential amino acids (Caisson), 1 mM of sodium pyruvate (Invitrogen), and 10 of ml/L penicillin-streptomycin-amphotericin solution (Biological Industries). Human HEK-293T cells were maintained in high-glucose Dulbecco's modified eagle medium (Invitrogen) supplemented with 10% FBS and 3.7 g/L of sodium bicarbonate (Sigma). Both cell lines were cultured at 37° C. and 5% CO2.
(§2) Total RNA was extracted using a TRIZOL reagent (Invitrogen) according to the manufacturer's protocol. The total RNA quantity was measured using a NanoDrop ND-1000 spectrophotometer (Nanodrop Technologies). The total RNA quality and integrity were assayed using an Agilent 2100 bioanalyzer with an RNA 6000 nano kit (Agilent Technologies).
(§3) Total RNAs (1 μg) were reverse-transcribed into cDNA by using M-MuLV Reverse Transcriptase (Thermo) and Oligo(dT)12-18 primers (Invitrogen) according to the manufacturer's protocol. The cDNA were then used for a real-time PCR with a LightCycler 480 SYBR Green I Master (Roche) by using primers shown in the following Table 1. The gene expression levels were normalized to GAPDH levels.
(§4) The HepG2 cells were transfected at a density of 5×10^4 cells per well in a 24-well culture plates with either 50 nM of hsa-miR-21-3p (miR-21-3p mimic) or negative-control mimic (NC mimic), or with either 100 nM of hsa-miR-21-3p inhibitor (miR-21-3p inhibitor) or negative-control inhibitor (NC inhibitor) by using the DharmaFECT 4 transfection reagent (Thermo Scientific Dharmacon) according to the manufacturer's instructions. Cells were incubated for 24 h or 48 h with a microRNA mimic or inhibitor prior to RNA purification for gene expression analysis, and were incubated for 72 h for protein expression analysis.

DIDO1 = test: qRT-PCR mRNA expression in HepG2 cells; assay type: cell-based, human; details: HepG2, 50 nM mimic transfection, 24 hours
Protocol: as §1, §2, §3, §4

EEF2K = test: qRT-PCR mRNA expression in HepG2 cells; assay type: cell-based, human; details: HepG2, 50 nM mimic transfection, 24 hours
Protocol: as §1, §2, §3, §4

NBPF8 = test: qRT-PCR mRNA expression in HepG2 cells; assay type: cell-based, human; details: HepG2, 50 nM mimic transfection, 24 hours
Protocol: as §1, §2, §3, §4

TMEM137 = test: qRT-PCR mRNA expression in HepG2 cells; assay type: cell-based, human; details: HepG2, 50 nM mimic transfection, 24 hours
Protocol: as §1, §2, §3, §4

HepG2 cells [1] = test: Trypan blue dye exclusion assay (viable cell number); assay type: cell-based, human; details: HepG2, 50 nM mimic transfection 48 h vs NC mimic
Protocol: FIG. 6A represents the number of viable HepG2 cells transfected with 50 nM of miR-21-3p mimic or negative-control (NC) mimic for 48 h, which is quantified using trypan blue dye exclusion assay. The data are represented as the mean±standard deviation for 3 independent experiments. The asterisk mark “*” indicates a significant difference with P<0.05.
as §4

HepG2 cells [2] = test: Apoptosis (sub-G1 population) by flow cytometry with PI staining; assay type: cell-based, human; details: HepG2, 50 nM mimic transfection 72 h vs NC mimic
Protocol: After transfection with 50 nM of hsa-miR-21-3p mimic or the negative-control mimic for 72 h, the HepG2 cells were trypsinized and counted. Apoptosis was detected by measuring the sub-G1 population by using flow cytometry with propidium iodide (PI) staining. In brief, the cells were fixed in 70% ethanol on ice for 15 min, and stained with the PI staining solution (20 μg/mL PI, 0.1% Triton-X 100, and 0.2 mg/mL RNase A in PBS) for 30 min at room temperature and analyzed using CyAn ADP (Beckman Coulter) flow cytometry with Summit software.

3′ UTR of ACACA = test: Reporter examination of miR-21-3p and ACACA 3′ UTR (technology similar to Example 6); assay type: cell-based, human; details: data not shown
Protocol: The HEK-293T and HepG2 cells were seeded at a density of 5×10^4 cells per well in a 24-well culture plate the day before transfection. The HEK-293T and HepG2 cells were tri-transfected with (1) any one of the above-mentioned pMIR-REPORT-3′ UTR construction (300 ng), (2) the control Renilla luciferase reporter plasmid pRL-TK from Promega (10 ng), and (3) 50 nM of hsa-miR-21-3p mimic or negative-control mimic by using the Lipofectamine 2000 transfection reagent (Invitrogen) according to the manufacturer's instructions. Luciferase assays were performed after transfection for 48 h by using the Dual Luciferase reporter assay kit (Promega) and the Paradigm detection platform (Beckman) according to the manufacturer's protocol. The firefly luciferase activity was normalized relative to the Renilla luciferase activity.

ACACA mRNA = test: mRNA stability assay; assay type: cell-based, human

Molecule	hsa-miR-21-3p expression increase (miRNA microarray) (hsa-miR-21-3p)	mRNA expression of SPEBF2 (SPEBF2)	decrease in mRNA level of DGAT2 (DGAT2)	decrease in mRNA expression of DIDO1 (DIDO1)	decrease in mRNA expression of EEF2K (EEF2K)	decrease in mRNA expression of NBPF8 (NBPF8)	decrease in mRNA expression of TMEM137 (TMEM137)	viable cell numbers (HepG2 cells [1])	apoptosis (sub-G1 population) (HepG2 cells [2])	suppression of ACACA expression via 3′ UTR (3′ UTR of ACACA)	half-life of ACACA mRNA (ACACA mRNA)
COc1ccc2cc3[n+](cc2c1OC)CCc1cc2c(cc1-3)OCO2 [berberine]	4 fold	decreases									
hsa-miR-21-3p (CAACACCAGUCGAUGGGCUGU; listed as RNA, chemistry not given here) [miR-21-3p mimic]			2.3 fold	< 50%	> 50%	< 50%	< 50%	reduced the viable cell numbers	induced apoptosis	suppressed the expression of ACACA, but not though its 3′ UTR sequence	reduced the half-life of ACACA mRNA
